The values that follow come from publication PMC4770715, “LIM kinase inhibitors disrupt mitotic microtubule organization and impair tumor cell proliferation” (Oncotarget, 2015).

Targets include CIT (Homo sapiens, UniProt O14578); CSF1R (Homo sapiens, UniProt P07333); FLT3(ITD) (Homo sapiens, UniProt P36888, ITD); GAK (Homo sapiens, UniProt O14976); LATS1 (Homo sapiens, UniProt O95835); MAPKAPK5 (Homo sapiens, UniProt Q8IW41); MARK3 (Homo sapiens, UniProt P27448); MKNK1 (Homo sapiens, UniProt Q9BUB5); MTOR (Homo sapiens, UniProt P42345); PAK3 (Homo sapiens, UniProt O75914); PIP5K1A (Homo sapiens, UniProt Q99755); RET (Homo sapiens, UniProt P07949); SRPK2 (Homo sapiens, UniProt P78362); STK36 (Homo sapiens, UniProt Q9NRP7); TNIK (Homo sapiens, UniProt Q9UKE5).

What all share (experiment): biochemical
Holding throughout (design): KINOMEscan active-site competition binding, percent of control (100 = no competition)
Common to all, as to conditions: competition binding, percent control

The target of assay [1] is T1, ABL1(F317L)-nonphosphorylated (Homo sapiens, UniProt P00519, F317L).
T1 construct: nonphosphorylated
T1 sequence (P00519 whole entry F317L): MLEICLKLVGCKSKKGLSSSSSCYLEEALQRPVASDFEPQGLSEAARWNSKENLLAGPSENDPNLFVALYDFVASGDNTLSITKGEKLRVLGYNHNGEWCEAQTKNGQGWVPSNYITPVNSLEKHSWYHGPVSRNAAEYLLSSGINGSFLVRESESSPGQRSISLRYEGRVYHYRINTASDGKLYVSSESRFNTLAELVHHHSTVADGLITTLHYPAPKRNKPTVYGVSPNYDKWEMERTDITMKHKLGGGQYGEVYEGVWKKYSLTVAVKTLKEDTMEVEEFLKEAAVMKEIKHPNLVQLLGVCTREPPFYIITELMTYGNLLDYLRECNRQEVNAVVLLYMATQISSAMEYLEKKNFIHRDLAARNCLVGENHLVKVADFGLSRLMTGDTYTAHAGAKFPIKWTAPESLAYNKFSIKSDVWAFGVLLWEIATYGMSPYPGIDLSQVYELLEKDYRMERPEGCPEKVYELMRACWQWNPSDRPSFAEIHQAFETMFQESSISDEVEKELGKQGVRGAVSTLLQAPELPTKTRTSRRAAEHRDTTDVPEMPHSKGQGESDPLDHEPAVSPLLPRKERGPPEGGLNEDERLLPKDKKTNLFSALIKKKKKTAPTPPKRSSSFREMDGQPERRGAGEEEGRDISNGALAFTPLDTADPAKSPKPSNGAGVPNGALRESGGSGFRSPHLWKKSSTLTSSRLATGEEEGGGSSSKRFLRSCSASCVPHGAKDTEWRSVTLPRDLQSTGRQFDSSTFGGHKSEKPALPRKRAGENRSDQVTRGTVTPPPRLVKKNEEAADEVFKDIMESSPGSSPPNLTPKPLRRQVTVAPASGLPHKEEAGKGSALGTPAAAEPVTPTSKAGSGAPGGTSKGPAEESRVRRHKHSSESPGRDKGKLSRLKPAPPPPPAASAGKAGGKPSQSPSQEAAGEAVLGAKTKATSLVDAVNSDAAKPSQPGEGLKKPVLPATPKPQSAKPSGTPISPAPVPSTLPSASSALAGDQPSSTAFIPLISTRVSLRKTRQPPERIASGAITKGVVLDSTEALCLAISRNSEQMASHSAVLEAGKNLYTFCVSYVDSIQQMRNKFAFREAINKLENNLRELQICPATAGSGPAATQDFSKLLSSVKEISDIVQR

Another assay addresses T2, CDK4-cyclinD1 (Homo sapiens, UniProt P11802).
T2 construct: cyclinD1

The next assay has as its target T3, CTK (Homo sapiens, UniProt P42679).
T3 construct: gene MATK

Assay [2] has as its target T4, JAK1(JH1domain-catalytic) (Homo sapiens, UniProt P23458).
T4 construct: JH1domain-catalytic

The target of assay [3] is T5, JAK1(JH2domain-pseudokinase) (Homo sapiens, UniProt P23458).
T5 construct: JH2domain-pseudokinase

Another assay concerns the target T6, MEK3 (Homo sapiens, UniProt P46734).
T6 construct: gene MAP2K3

The target in assay [4] is T7, RSK3(Kin.Dom.1-N-terminal) (Homo sapiens, UniProt Q15349).
T7 construct: gene RPS6KA2; Kin.Dom.1-N-terminal

A further assay has as its target T8, SNARK (Homo sapiens, UniProt Q9H093).
T8 construct: gene NUAK2

Molecules are shown by their SMILES.

T2 sequence (P11802 whole entry): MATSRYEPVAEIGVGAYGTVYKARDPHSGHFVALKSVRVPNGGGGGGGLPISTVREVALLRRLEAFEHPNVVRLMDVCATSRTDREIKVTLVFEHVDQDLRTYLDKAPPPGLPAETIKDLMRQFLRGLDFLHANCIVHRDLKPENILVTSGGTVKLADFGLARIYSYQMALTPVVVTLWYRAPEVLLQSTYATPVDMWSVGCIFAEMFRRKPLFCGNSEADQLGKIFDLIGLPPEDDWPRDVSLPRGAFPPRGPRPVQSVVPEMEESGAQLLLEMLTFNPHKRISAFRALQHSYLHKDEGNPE
T2 sequence (P24385 whole entry partner): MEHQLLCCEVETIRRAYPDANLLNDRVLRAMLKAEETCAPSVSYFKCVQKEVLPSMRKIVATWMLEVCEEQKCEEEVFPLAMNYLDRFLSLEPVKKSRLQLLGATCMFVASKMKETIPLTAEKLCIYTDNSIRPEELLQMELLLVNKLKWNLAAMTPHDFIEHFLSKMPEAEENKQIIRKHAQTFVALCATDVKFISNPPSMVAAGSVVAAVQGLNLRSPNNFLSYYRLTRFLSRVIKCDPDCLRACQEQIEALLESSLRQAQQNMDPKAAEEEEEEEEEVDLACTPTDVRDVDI
Sequence of MAPKAPK5 (Q8IW41 whole entry): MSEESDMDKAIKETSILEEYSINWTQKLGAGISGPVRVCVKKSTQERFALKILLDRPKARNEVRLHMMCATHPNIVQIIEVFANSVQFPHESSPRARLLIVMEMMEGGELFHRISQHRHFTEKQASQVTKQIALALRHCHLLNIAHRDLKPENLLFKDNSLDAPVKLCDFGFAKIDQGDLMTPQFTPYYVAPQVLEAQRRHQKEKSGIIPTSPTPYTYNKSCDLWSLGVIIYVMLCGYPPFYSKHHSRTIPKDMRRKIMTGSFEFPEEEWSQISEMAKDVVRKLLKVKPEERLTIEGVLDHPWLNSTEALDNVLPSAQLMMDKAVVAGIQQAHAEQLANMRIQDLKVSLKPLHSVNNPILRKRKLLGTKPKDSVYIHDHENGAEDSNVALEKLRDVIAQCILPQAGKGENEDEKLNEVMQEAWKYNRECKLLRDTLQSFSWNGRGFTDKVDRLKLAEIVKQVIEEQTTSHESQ
Sequence of CSF1R (P07333 whole entry): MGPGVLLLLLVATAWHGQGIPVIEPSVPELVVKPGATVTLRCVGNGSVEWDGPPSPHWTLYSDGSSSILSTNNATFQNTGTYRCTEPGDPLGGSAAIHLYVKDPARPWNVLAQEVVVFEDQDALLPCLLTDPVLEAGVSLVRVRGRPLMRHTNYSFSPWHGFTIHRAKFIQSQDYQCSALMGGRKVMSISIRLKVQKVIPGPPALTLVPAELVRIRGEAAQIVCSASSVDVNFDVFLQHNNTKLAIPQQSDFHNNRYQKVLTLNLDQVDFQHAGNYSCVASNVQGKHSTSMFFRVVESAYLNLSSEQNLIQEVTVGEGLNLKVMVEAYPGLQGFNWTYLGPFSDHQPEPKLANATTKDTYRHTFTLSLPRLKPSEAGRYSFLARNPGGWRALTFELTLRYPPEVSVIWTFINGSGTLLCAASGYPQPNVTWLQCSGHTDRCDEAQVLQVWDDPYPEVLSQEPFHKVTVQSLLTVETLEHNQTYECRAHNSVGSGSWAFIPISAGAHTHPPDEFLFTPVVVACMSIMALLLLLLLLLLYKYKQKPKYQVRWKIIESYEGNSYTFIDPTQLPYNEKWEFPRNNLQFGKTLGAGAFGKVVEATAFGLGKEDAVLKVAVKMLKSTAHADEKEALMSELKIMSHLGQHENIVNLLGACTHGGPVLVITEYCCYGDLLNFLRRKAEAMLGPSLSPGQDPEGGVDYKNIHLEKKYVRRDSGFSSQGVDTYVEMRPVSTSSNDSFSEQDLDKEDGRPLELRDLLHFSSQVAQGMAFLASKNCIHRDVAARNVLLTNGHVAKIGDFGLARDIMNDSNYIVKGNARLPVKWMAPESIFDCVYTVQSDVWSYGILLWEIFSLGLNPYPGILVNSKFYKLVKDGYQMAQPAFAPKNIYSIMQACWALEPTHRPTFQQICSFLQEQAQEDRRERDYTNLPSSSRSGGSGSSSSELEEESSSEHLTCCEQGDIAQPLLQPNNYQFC
Sequence of FLT3(ITD) (P36888 564-993, change not shown): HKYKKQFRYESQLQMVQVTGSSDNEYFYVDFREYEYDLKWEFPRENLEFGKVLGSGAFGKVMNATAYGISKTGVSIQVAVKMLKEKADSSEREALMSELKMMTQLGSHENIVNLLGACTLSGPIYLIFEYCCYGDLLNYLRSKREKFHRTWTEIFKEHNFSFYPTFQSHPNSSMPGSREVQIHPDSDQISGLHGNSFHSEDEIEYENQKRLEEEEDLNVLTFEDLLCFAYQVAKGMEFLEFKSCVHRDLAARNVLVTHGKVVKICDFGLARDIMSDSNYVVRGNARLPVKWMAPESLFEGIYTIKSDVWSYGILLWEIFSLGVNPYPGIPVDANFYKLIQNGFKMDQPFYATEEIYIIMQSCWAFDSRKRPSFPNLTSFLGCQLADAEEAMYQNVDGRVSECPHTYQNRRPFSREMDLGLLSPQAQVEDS
Sequence of TNIK (Q9UKE5 whole entry): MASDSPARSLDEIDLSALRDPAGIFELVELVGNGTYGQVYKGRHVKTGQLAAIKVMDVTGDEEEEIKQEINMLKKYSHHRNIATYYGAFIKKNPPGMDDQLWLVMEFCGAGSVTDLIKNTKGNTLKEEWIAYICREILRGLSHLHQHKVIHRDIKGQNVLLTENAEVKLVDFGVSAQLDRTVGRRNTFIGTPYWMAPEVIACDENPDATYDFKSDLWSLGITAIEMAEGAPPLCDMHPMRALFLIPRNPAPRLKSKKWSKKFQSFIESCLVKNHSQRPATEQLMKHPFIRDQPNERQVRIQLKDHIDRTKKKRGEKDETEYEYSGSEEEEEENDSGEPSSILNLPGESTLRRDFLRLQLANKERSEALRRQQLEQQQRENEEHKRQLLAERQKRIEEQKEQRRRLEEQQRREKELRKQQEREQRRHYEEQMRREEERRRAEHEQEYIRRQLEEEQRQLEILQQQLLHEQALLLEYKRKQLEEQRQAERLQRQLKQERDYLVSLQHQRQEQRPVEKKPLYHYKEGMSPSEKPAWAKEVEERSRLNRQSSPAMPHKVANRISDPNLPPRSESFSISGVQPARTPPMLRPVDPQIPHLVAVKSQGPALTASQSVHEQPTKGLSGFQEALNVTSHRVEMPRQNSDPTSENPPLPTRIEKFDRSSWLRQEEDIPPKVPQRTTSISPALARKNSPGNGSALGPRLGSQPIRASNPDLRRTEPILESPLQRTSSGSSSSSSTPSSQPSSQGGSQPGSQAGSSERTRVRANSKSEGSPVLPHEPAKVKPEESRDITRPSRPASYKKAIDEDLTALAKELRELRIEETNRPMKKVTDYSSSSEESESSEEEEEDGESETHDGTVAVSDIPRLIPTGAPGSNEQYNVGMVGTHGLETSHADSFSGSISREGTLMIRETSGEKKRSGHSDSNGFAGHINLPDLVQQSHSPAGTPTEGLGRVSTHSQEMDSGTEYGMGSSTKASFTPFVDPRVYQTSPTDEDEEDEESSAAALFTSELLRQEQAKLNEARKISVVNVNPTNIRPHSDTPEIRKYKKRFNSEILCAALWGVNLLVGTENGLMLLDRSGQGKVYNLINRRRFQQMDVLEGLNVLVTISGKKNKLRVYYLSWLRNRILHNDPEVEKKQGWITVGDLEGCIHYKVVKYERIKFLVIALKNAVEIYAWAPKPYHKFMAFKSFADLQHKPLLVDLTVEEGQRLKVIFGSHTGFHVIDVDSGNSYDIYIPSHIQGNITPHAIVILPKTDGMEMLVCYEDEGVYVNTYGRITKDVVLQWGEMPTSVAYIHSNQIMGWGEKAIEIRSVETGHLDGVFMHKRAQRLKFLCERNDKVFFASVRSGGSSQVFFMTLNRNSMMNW

Turning to `COc1ccc(-c2cnccc2-c2cnc(NC(=O)C(C)C)s2)c(C(F)(F)F)c1` [CRT0105446, N-{5-[3-(4-Methoxy-2-trifluoromethyl-phenyl)-pyridin-4-yl]-hiazol-2-yl}-isobutyramide], the remaining binding at 10 µM in assay [1] came to 92%; at CDK4-cyclinD1 it was 20%; on CIT, 37%; on CSF1R, 51%; on CTK, 100%; at FLT3(ITD), 79%. The remaining binding at 10 µM came out at 92% on GAK; 89% in assay [2]; 92% in assay [3]; 91% on LATS1; 95% at MAPKAPK5; 78% at MARK3. In addition, the remaining binding at 10 µM on MEK3 amounted to 83%; on MKNK1 it was 49%; at MTOR, 64%; on PAK3 it was 4.6%; on PIP5K1A, 100%; on RET, 87%. In addition, the remaining binding at 10 µM in assay [4] was 71%; on SNARK, 84%; at SRPK2, 93%; at STK36 it was 57%; on TNIK it was 89%.
Take `Cc1ccc(-c2cnccc2-c2cnc(Nc3ccc(O)cc3)s2)c(Cl)c1` [CRT0105950, 4-{5-[3-(2-Chloro-4-methyl-phenyl)-pyridin-4-yl]-thiazol-2-ylamino}-phenol]: the remaining binding at 10 µM came to 86% in [1]; 3.7% on CDK4-cyclinD1; 44% on CIT; 1.2% at CSF1R; 100% on CTK; 4.4% at FLT3(ITD). The remaining binding at 10 µM on GAK turned out to be 22%; in [2] it was 53%; in assay [3], 74%; on LATS1 it was 23%; on MAPKAPK5, 97%; at MARK3, 51%. The remaining binding at 10 µM at MEK3 is 27%; on MKNK1 it was 46%; on MTOR it was 35%; on PAK3, 4.1%; on PIP5K1A, 82%; on RET, 1.2%. For the same compound, the remaining binding at 10 µM was found to be 0.15% in [4]; 31% at SNARK; 83% on SRPK2; 17% at STK36; 10% on TNIK.
